Assay results from patent US11485720B2, “Anti-infective agents” (University of Dundee, priority 2016, dated 2022).
≈ marks a conversion by molar mass, not a printed value. Where “and” joins values, the source holds several entries; their conditions need not be identical. Identical values can stand only once. Like-named read-outs stand apart in the source and are kept apart here.

Assays:
[1] = molecular target: T1, Plasmodium falciparum lysyl t-RNA synthetase (Pf-KRS1) (Plasmodium falciparum, UniProt Q8IDJ8); experiment: Pf-KRS1 inhibition biochemical assay (Kinase-Glo, ATP depletion)
T1 construct: Pf KRS1-; made in house; host or cells: E. coli BL21 (DE3)
Method in brief: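 Recombinant Pf-KRS1 (75 nM working concentration) in HEPES/KOH/MgCl2/KCl buffer with 3 μM ATP, 60 μM L-lysine, 0.4 mg/ml yeast tRNA and pyrophosphatase; compounds at 50 μM–2.5 nM final. Reaction ran 5 h at room temperature, then remaining ATP was read by Kinase-Glo luminescence. IC50 came from nonlinear fits of % inhibition against controls.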

[2] = test system: Plasmodium falciparum strain 3D7; experiment: Plasmodium falciparum 3D7 in vitro growth inhibition (SYBRgreen I); assay type: cell-based; conditions: Plasmodium falciparum, 3D7; read-out: pEC50 for Pf 3D7 (converted)
Method in brief: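 10-point, 1-in-3 dilution series from a top concentration of 50 μM; parasite growth read as SYBRgreen I fluorescence on double-stranded DNA (ex 485/em 528 nm). EC50 = concentration causing 50% parasite death, from at least 3 independent experiments.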

[3] = molecular target: T2, Mycobacterium tuberculosis lysyl t-RNA synthetase (Mtb KRS) (Mycobacterium tuberculosis, UniProt P9WFU9); experiment: Mtb KRS inhibition biochemical assay (BioMol Green); conditions: read-out: Mtb KRS pIC50 (converted)
T2 construct: MtbKRS1-; made in house; host or cells: E. coli BL21 (DE3)

Cryptosporidium parvum [4] = experiment: In vitro Crytosporidium inhibition assay; assay type: cell-based; conditions: for EC50: Cryptosporidium parvum, read-out: Cryptosporidium parvum pEC50 (converted)
Text: Assay Method for Measurement of In Vitro Inhibition of Crytosporidium.
These experiments were run in accordance with the method of Besssoff et. al. Antimicrob. Agents Chemother. 2013, 57:1804-1814. Results from these experiments are provided in the Experimental Results hereinafter.

THP-1 cells = experiment: THP-1 host cell count in intramacrophage Leishmania assay; assay type: cell-based; conditions: Homo sapiens, host cell toxicity, read-out: THP1 pEC50 (converted)
Protocol: The intramacrophage Leishmania assay was performed as described in de Rycker et al (Antimicrob Agents Chemother, 2013 July; 57(7):2913-22. doi: 10.1128/AAC.02398-12). Briefly, 1 μl of compound was pre-dispensed into 384 well sterile intermediary plates. For single point screening, amphotericin B was added to all wells of column 24 as a positive control (final concentration 2 μM) and DMSO to column 23. For potency determinations, ten-point, one in three dilution curves were created with the highest concentration being 50 μM and on each plate a control curve of amphotericin B was included. Controls were as follows: columns 11 and 12: DMSO, columns 23 and 24: amphotericin B (final concentration 2 μM). To the intermediary plates, 100 μl of THP-1 media was added and plates were shaken for >5 min to ensure complete mixing. THP-1 cells (8,000 per well, 50 μl) were plated into black clear-bottom 384 well plates (Corning) in presence of 10 nM PMA. After 20 min at room temperature, the plates were incubated at 37° C. under 5% CO2 in a humidified incubator for 75 h. The cells were then washed with […] sterile phosphate buffered saline (PBS) supplemented with 1 mM CaCl2, 0.5 mM MgCl2, 0.1% (w/v) bovine serum albumin (PBS-A) and amastigotes were added to all wells at a multiplicity of infection of 5 (40,000 amastigotes per well). After 40 min at room temperature, plates were returned to the incubator. Amastigotes were incubated in the presence of macrophages for 16 h. Any remaining extracellular amastigotes were subsequently removed with an overflow wash of 1 ml PBS-A per well (wash buffer is being aspirated from the top of the well as it is being dispensed) followed by addition of 25 μl of the compound pre-dilutions using a Matrix Hydra DT pipetting station. The final dilution of each compound was 200-fold. Plates were incubated for 72 h and then washed (250 μl PBS-A) and fixed (4% (v/v) formaldehyde-PBS, 30 min, room temperature). After fixation, the wells were washed with 250 μl PBS, stained (10 μg/ml DAPI, 0.4 μg ml-1 HCS Cellmask Deep Red in PBS+0.1% (v/v) Triton X-100, 30 min, room temperature) and washed with 250 μl PBS. Finally, PBS+0.05% (v/v) thimerosal was added to the wells, the plates were sealed and imaged on a high-content microscope (GE IN Cell 1000 or GE IN Cell 2000) using a 10× objective. Image analysis was carried out with GE IN Cell Analyzer 1000 Workstation using the “Multi Target Analysis” module. Settings for segmentation were as follows: nuclei: minimum area: 142.384 μm^2, sensitivity: 81, method: top-hat; cells: characteristic area: 2500 μm^2, sensitivity: 60, method: multiscale top-hat; organelles (amastigotes): granule size 1-3, 3 scales, sensitivity: 90, detection in entire cell. […]

Leishmania donovani [5] = experiment: Leishmania donovani intramacrophage inhibition assay (Ld-INMAC); assay type: cell-based; conditions: intramacrophage amastigotes in THP-1 cells, read-out: Ld-INMAC pEC50 (converted)
Protocol: Assay Method for Measurement of In Vitro Inhibition of Leishmania donovani.
These experiments were run in accordance with the method as detailed herein and results from these experiments are provided in the Experimental Results hereinafter.
The intramacrophage Leishmania assay was performed as described in de Rycker et al (Antimicrob Agents Chemother, 2013 July; 57(7):2913-22. doi: 10.1128/AAC.02398-12). Briefly, 1 μl of compound was pre-dispensed into 384 well sterile intermediary plates. For single point screening, amphotericin B was added to all wells of column 24 as a positive control (final concentration 2 μM) and DMSO to column 23. For potency determinations, ten-point, one in three dilution curves were created with the highest concentration being 50 μM and on each plate a control curve of amphotericin B was included. Controls were as follows: columns 11 and 12: DMSO, columns 23 and 24: amphotericin B (final concentration 2 μM). To the intermediary plates, 100 μl of THP-1 media was added and plates were shaken for >5 min to ensure complete mixing. THP-1 cells (8,000 per well, 50 μl) were plated into black clear-bottom 384 well plates (Corning) in presence of 10 nM PMA. After 20 min at room temperature, the plates were incubated at 37° C. under 5% CO2 in a humidified incubator for 75 h. The cells were then washed with […] sterile phosphate buffered saline (PBS) supplemented with 1 mM CaCl2, 0.5 mM MgCl2, 0.1% (w/v) bovine serum albumin (PBS-A) and amastigotes were added to all wells at a multiplicity of infection of 5 (40,000 amastigotes per well). After 40 min at room temperature, plates were returned to the incubator. Amastigotes were incubated in the presence of macrophages for 16 h. Any remaining extracellular amastigotes were subsequently removed with an overflow wash of 1 ml PBS-A per well (wash buffer is being aspirated from the top of the well as it is being dispensed) followed by addition of 25 μl of the compound pre-dilutions using a Matrix Hydra DT pipetting station. The final dilution of each compound was 200-fold. Plates were incubated for 72 h and then washed (250 μl PBS-A) and fixed (4% (v/v) formaldehyde-PBS, 30 min, room temperature). After fixation, the wells were washed with 250 μl PBS, stained (10 μg/ml DAPI, 0.4 μg ml-1 HCS Cellmask Deep Red in PBS+0.1% (v/v) Triton X-100, 30 min, room temperature) and washed with 250 μl PBS. Finally, PBS+0.05% (v/v) thimerosal was added to the wells, the plates were sealed and imaged on a high-content microscope (GE IN Cell 1000 or GE IN Cell 2000) using a 10× objective. Image analysis was carried out with GE IN Cell Analyzer 1000 Workstation using the “Multi Target Analysis” module. […]

Hep G2 = Hep G2 in-vitro cytotoxicity assay; assay type: cell-based; conditions: Homo sapiens, HepG2, read-out: Hs HEPG2 pEC50 (converted)
Method in brief: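 Hep G2 human hepatocyte carcinoma cells serve as a general mammalian cell toxicity indicator, following the Mersch-Sundermann procedure.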

Leishmania donovani [6] = experiment: Ld-cAxAm-TP-pMIC assay; assay type: cell-based; conditions: read-out: Ld-cAxAm-TP-pMIC pEC50 (converted)
M. tuberculosis H37Rv = experiment: In vitro inhibition of M. tuberculosis H37Rv (MIC, resazurin); assay type: cell-based; conditions: Mycobacterium tuberculosis, read-out: Mtb MIC
Cryptosporidium parvum [7] = experiment: Anti-Cryptosporidium in vivo efficacy, NOD SCID gamma mouse model; conditions: 50 mg/kg, twice a day (bid), 4 days
Text: Measurement of Anti-Cryptosporidium In Vivo Efficacy
The in vivo measurement of the potential efficacy of compounds of formula (I) in two cryptosporidium models has been carried out.
The cryptosporidiosis NOD SCID gamma mouse model were run as follows: Male NOD SCID gamma mice (NOD.Cg-Prkdc^scid Il2rg^tm1Wjl/SzJ, Jackson Labs) were infected approximately 2 weeks post weaning with 10^5 C. parvum Iowa strain oocysts by oral gavage. Four mice were used per experimental group. This establishes a chronic, asymptomatic infection of the small intestine, cecum, and biliary tree. Fecal parasite shedding is monitored by quantitative PCR to amplify C. parvum DNA. One week after infection (which is the timing with which shedding becomes uniformly detected), compounds are dosed by oral gavage based. Treatment continued for four days total. Fecal oocyst shedding is reported on day 1 (7 days after initial infection with sample taken just prior to the first dose of compound) and day 5 (1 day after completion of the last dose).

Plasmodium falciparum = experiment: Anti-malarial in vivo efficacy, Plasmodium falciparum SCID mouse model; conditions: 20 mg/kg, 4 days
Text: Measurement of Anti-Malarial In Vivo Efficacy The in vivo measurement of the potential efficacy of compounds of formula (I) in a malarial model has been carried out. These in vivo experiments were run in accordance with the method published in Jimenez-Diaz, M. B. et al., Antimicrob. Agents Chemother. 53, 4533-4536, (2009). Results from these experiments are provided in the Experimental Results hereinafter.

[8] = cited from earlier work
PfLysRS = PfLysRS (Plasmodium falciparum, UniProt Q8IDJ8); conditions: cited from earlier work
[9] = molecular target: Schistosoma mansoni (Sm) lysyl-tRNA synthetase; conditions: cited from earlier work
[10] = test system: blood and liver stages of Plasmodium; conditions: cited from earlier work
[11] = read-out: Pf-KRS pIC50 (converted)

T1 sequence (Q8IDJ8 entry or part of it, looked up, natural form): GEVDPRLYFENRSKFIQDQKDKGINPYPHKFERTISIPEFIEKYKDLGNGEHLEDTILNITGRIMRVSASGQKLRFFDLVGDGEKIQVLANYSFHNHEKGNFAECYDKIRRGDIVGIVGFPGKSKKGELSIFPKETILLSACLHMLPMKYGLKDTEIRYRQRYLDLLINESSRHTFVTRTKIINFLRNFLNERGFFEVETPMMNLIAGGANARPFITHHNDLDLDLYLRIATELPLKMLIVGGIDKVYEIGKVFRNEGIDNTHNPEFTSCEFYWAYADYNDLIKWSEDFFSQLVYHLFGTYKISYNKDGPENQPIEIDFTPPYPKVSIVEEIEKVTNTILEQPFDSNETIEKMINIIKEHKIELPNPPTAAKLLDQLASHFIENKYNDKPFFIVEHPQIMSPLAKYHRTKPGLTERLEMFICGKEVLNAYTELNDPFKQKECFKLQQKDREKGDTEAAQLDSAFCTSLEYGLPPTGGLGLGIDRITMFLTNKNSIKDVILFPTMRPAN
T2 sequence (P9WFU9 whole entry): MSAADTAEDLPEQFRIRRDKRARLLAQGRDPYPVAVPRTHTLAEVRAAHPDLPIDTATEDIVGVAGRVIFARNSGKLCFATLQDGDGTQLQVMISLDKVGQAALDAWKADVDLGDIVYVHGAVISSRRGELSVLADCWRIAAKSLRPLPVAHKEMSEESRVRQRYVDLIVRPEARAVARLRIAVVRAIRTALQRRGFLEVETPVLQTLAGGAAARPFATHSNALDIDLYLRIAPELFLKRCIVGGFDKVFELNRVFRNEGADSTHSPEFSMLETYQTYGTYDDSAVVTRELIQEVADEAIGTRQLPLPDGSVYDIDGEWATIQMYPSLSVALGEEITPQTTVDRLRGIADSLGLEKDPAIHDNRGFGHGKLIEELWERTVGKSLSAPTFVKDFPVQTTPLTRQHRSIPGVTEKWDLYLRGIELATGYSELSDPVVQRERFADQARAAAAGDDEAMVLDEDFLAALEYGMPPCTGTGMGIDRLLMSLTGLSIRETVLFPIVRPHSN
Sequence of PfLysRS (Q8IDJ8 1-583): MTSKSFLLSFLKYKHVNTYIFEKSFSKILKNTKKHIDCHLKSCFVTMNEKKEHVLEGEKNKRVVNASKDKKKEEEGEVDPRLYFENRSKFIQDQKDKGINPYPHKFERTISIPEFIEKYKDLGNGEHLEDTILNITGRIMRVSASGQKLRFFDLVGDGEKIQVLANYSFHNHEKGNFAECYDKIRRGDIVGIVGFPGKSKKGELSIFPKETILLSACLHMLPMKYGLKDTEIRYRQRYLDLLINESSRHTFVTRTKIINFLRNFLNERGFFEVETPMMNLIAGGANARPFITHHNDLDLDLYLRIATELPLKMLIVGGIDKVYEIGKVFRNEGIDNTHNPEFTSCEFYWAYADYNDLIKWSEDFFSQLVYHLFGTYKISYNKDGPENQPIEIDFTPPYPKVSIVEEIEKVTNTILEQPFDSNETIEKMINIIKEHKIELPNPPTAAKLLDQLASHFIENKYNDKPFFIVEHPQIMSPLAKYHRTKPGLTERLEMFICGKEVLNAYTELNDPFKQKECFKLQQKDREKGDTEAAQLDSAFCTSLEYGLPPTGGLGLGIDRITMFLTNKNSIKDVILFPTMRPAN

| SMILES | IC50 [1, 11] | EC50 [2] | IC50 [3] | EC50 (Cryptosporidium parvum [4]) | EC50 (Hep G2) | also measured |
| --- | --- | --- | --- | --- | --- | --- |
| O=C(NC1CCCCC1)c1cc(=O)c2cc(F)cc(O)c2o1 [Example 76B, N-cyclohexyl-6-fluoro-8-hydroxy-4-oxo-chromene-2-carboxamide] | 398 nM | 1580 nM | 7940 nM |  |  |  |
| CCC(C)CNC(=O)c1cc(=O)c2cc(F)cc(O)c2o1 (centres unmarked) [Example 76H, 6-fluoro-8-hydroxy-N-(2-methylbutyl)-4-oxo-chromene-2-carboxamide] | 251 nM | 251 nM | 50100 nM |  |  |  |
| O=C(NCC1(O)CCCCC1)c1cc(=O)c2cc(O)cc(F)c2o1 [Example 81, 8-fluoro-6-hydroxy-N-((1-hydroxycyclohexyl)methyl)-4-oxo-4H-chromene-2-carboxamide] | 200 nM |  |  | 126 nM | 15800 nM | EC50 (THP-1 cells): > 50100 nM; EC50 (Leishmania donovani [5]): 20000 nM; EC50 (Leishmania donovani [6]): 6310 nM |
| O=C(NCC1(O)CCCCC1)c1cc(=O)c2cc(F)cc(O)c2o1 [Example 74, 6-fluoro-8-hydroxy-N-((1-hydroxycyclohexyl)methyl)-4-oxo-4H-chromene-2-carboxamide] | 50.1 nM | 63.1 nM |  | 39.8 nM | 31600 nM | MIC (M. tuberculosis H37Rv): 25 µM (≈ 8.38 µg/mL); % Reduction in parasitaemia (Cryptosporidium parvum [7]): 92.5% |
| O=C(NC1CCCC(F)(F)C1)c1cc(=O)c2cc(F)cc(O)c2o1 (centres unmarked) [Example 76C, N-(3,3-Difluorocyclohexyl)-6-fluoro-8-hydroxy-4-oxo-4H-chromene-2-carboxamide] | 316 nM | 1000 nM | 15800 nM | 2000 nM | 50100 nM |  |
| O=C(NCC1CCC1)c1cc(=O)c2cc(F)cc(O)c2o1 [Example 76E, N-(cyclobutylmethyl)-6-fluoro-8-hydroxy-4-oxo-4H-chromene-2-carboxamide] | 251 nM | 794 nM | 31600 nM |  |  |  |
| O=C(NCC1(O)CCCCC1)c1cc(=O)c2ccc(F)c(O)c2o1 [Example 77, 7-fluoro-8-hydroxy-N-((1-hydroxycyclohexyl)methyl)-4-oxo-4H-chromene-2-carboxamide] |  | 126 nM |  | 126 nM | 39800 nM | IC50 ([1]; Pf-KRS pIC50): 100 nM; % Reduction in parasitaemia (Cryptosporidium parvum [7]): 99.6% |
| O=C(NCC1CCCCC1)c1cc(=O)c2ccc(F)c(O)c2o1 [Example 78, N-(cyclohexylmethyl)-7-fluoro-8-hydroxy-4-oxo-4H-chromene-2-carboxamide] | 79.4 nM | 100 nM |  | 1 nM | 20000 nM | % Reduction in parasitaemia (Cryptosporidium parvum [7]): 99.4% |
| O=C(NCC1(O)CCC(F)(F)CC1)c1cc(=O)c2cc(F)ccc2o1 [Example 54, N-[(4,4-difluoro-1-hydroxy-cyclohexyl)methyl]-6-fluoro-4-oxo-chromene-2-carboxamide] | 126 nM and 251 nM |  |  | 1260 nM | 50100 nM | Cryptosporidium parvum pEC50 (Cryptosporidium parvum [4]): 5.8; EC50 (THP-1 cells): 50100 nM; EC50 (Leishmania donovani [5]): 31600 nM; % Reduction in parasitaemia (Plasmodium falciparum): 99.2%; EC50 (Leishmania donovani [6]): 12600 nM |
| C[C@H]1CCC[C@H](C[C@H]2Cc3cc(O)cc(O)c3C(=O)O2)O1 [Cladosporin, cladosporin] |  |  |  |  |  | bioavailability [8]: poorly bioavailable; selectivity vs HsLysRS (PfLysRS): more than 100 fold; IC50 ([9]; Sharma et al., read-out: Sm LysRS IC50): 97 nM; selectivity vs HsLysRS ([9]; Sm LysRS vs HsLysRS): more than 60 fold; inhibition of blood and liver stages of Plasmodium [10]: nanomolar inhibitor |
| O=C(NCC1(O)CCCCC1)c1cc(=O)c2cc(Cl)ccc2o1 [Example 48, 6-chloro-N-[(1-hydroxycyclohexyl)methyl]-4-oxo-chromene-2-carboxamide] | 126 nM | 398 nM |  | 63.1 nM | 31600 nM | EC50 (THP-1 cells): > 50100 nM; EC50 (Leishmania donovani [5]): 7940 nM; EC50 (Leishmania donovani [6]): 10000 nM |
